# Laboratory results as given in patent US20250043360A1, “USE OF RPN11 MARKER IN DETECTION OF MYELOMA AND DISEASE RISK THEREOF, PROGNOSIS ANALYSIS AND TREATMENT MEDICAMENT” (Peking University, priority 2022, published 2025).
# Columns and labels:
# Assay type in all cases: cell-based
# LP-1 cells [1] = assay: CCK cell counting experiment, wild-type LP-1 cells; conditions: vs control group (Vehicle), OPA 10 μM, Capzimin 2 μM, FIG. 7A
# Procedure: (§1) CCK kit was used to detect cell proliferation of LP-1 cells stably overexpressing and knocking down RPN11: after the transfected cells were cultured for 48 h, the cells were digested with 0.25% trypsin and counted, inoculated in a 96-well plate at a concentration of 1×10^4 cells/mL, 100 μL in each well; 10 μL of CCK8 reagent was added to each well of the 96-well plate in the dark, the culture plate was shaken for 3 min, then placed into the incubator to continue culturing for 2 h, and the culture plate was taken out and the OD value was measured at a wavelength of 450 nm with a microplate reader.
# (§2) Wild-type or bortezomib-resistant LP-1 cells (LP-1 or LP-1BR) were treated with Vehicle or RPN11 inhibitor (OPA or Capzimin) separately, and the proliferation and apoptosis of LP-1BR cells were detected through CCK cell counting experiment and cell apoptosis experiment.
# [2] = test system: bortezomib-resistant LP-1 cells (LP-1BR); assay: CCK cell counting experiment, bortezomib-resistant LP-1 cells; conditions: LP-1BR cells, vs control group (Vehicle); OPA 10 μM, Capzimin 2 μM; FIG. 7A
# Procedure: as §1, §2
# LP-1 cells [3] = assay: Cell apoptosis experiment, wild-type LP-1 cells; conditions: vs control group (Vehicle), OPA 10 μM, Capzimin 2 μM, FIG. 7B
# Procedure: (§3) Apoptosis was detected in LP-1 cells stably overexpressing and knocking down RPN11. The cells were treated with camptothecin (CPT) for 24 h, washed with PBS, double-stained with Annexin V-APC/propidium iodide (PI) for 15 min at room temperature in the dark, and cell collection and analysis were conducted on each sample using a FACS Calibur flow cytometer.
# as §2
# [4] = test system: bortezomib-resistant LP-1 cells (LP-1BR); assay: Cell apoptosis experiment, bortezomib-resistant LP-1 cells; conditions: LP-1BR cells, vs control group (Vehicle); OPA 10 μM, Capzimin 2 μM; FIG. 7B
# Procedure: as §3, §2
# LP-1 cells [5] = assay: CCK cell counting assay, RPN11 inhibitor combined with Lenalidomide or Dexamethasone; conditions: vs either agent alone, range of concentrations, FIG. 8
# Procedure: as §1
# LP-1 cells were treated with RPN11 inhibitors (OPA or Capzimin) or/and Lenalidomide or Dexamethasone (within a range of concentrations), and the cell proliferation ability was detected using CCK cell counting assay.
structure (smiles),measurement,setting,value
c1cnc2c(c1)ccc1cccnc12 [OPA],proliferation ability,LP-1 cells [1],significantly reduced
same,proliferation ability,[2],significantly reduced
same,number of apoptotic cells,LP-1 cells [3],significantly increased
same,number of apoptotic cells,[4],significantly increased
same,combined treatment effect on inhibiting the growth and proliferation,LP-1 cells [5]; combined with dexamethasone,synergistic effect
same,combined treatment effect on inhibiting the growth and proliferation,LP-1 cells [5]; combined with lenalidomide,synergistic effect
